Values quoted from earlier work in PubChem BioAssay AID1259409 (Chemical Carcinogenesis Research Information System (CCRIS), 2018).

Test system: rodent chemically induced tumor inhibition, incidence and multiplicity
Assay: CCRIS tumor inhibitor studies
Settings: Species: MOUSE

O=c1c(O)c(-c2ccc(O)c(O)c2)oc2cc(O)cc(O)c12
tumour outcome (control, treated, inhibition, significance) (Carcinogen: 7,12-DIMETHYLBENZ[A]ANTHRACENE, 57-97-6, Dose [Inhibitor]: 30 UMOL IN 100 µL ACETONE/DIMETHYL SULFOXIDE (4/1, V/V) 2/WK 40 MINUTES BEFORE AND CONCURRENTLY WITH EACH PROMOTER TREAT, Route [Inhibitor]: DERMAL, Strain/Sex: ICR/FEMALE, Target Tissue: Type of Lesion: SKIN: PAPILLOMA, Dose [Carcinogen]: 100 UG IN 100 µL ACETONE ONCE, Promoter: TELEOCIDIN, 78474-55-2): 80%, 30%, 63%, not calculated
tumour outcome (control, treated, inhibition, significance) (Carcinogen: 7,12-DIMETHYLBENZ[A]ANTHRACENE, 57-97-6, Dose [Inhibitor]: 100 UG IN 0.2 ML ACETONE ONCE 5 MIN BEFORE CARCINOGEN TREATMENT (STUDY DURATION: 31 WK), Route [Inhibitor]: DERMAL, Strain/Sex: CD-1/FEMALE, Target Tissue: Type of Lesion: SKIN: PAPILLOMA, Dose [Carcinogen]: 10 NMOL IN 0.2 ML ACETONE ONCE, Promoter: 12-O-TETRADECANOYLPHORBOL-13-ACETATE, 16561-29-8): 87%, 70%, 20%, not calculated
tumour outcome (control, treated, inhibition, significance) (Carcinogen: (+/-)-7BETA,8ALPHA-DIHYDROXY-9ALPHA,10ALPHA-EPOXY-7,8,9,10- TETRAHYDROBENZO[A]PYRENE, 58917-67-2, Dose [Inhibitor]: 3000 NMOL IN 0.2 ML ACETONE 1/D FOR 7 D (STUDY DURATION: 18 WK), Route [Inhibitor]: DERMAL, Strain/Sex: SENCAR/FEMALE, Target Tissue: Type of Lesion: SKIN: TUMOR, Dose [Carcinogen]: 200 NMOL IN 0.2 ML ACETONE ONCE 30 MIN POST LAST CARCINOGEN DOSE, Promoter: 12-O-TETRADECANOYLPHORBOL-13-ACETATE, 16561-29-8): 75%, 65%, 13%, not significant
tumour outcome (control, treated, inhibition, significance) (Carcinogen: (+/-)-7BETA,8ALPHA-DIHYDROXY-9ALPHA,10ALPHA-EPOXY-7,8,9,10-TETRAHYDROBENZO[A]PYR ENE, 58917-67-2, Dose [Inhibitor]: 0, 1400 NMOL (TOTAL DOSE) APPLIED 10 MIN PRIOR TO CARCINOGEN DOSE INJECTED AS 1/7, 2/7, AND 4/7 OF THE TOTAL ON DAYS 1,, Route [Inhibitor]: INTRAPERITONEAL, Strain/Sex: ICR/MALE,FEMALE, Target Tissue: Type of Lesion: LUNG: TUMOR, Dose [Carcinogen]: 30 NMOL (TOTAL DOSE) INJECTED IN DOSES OF 1/7, 2/7, AND 4/7 ON DAYS 1, 8, AND 15 OF LIFE, RESPECTIVELY, Promoter: NONE USED): 93%, 81%, 13%, not significant
tumour outcome (control, treated, inhibition, significance) (Carcinogen: (+/-)-7BETA,8ALPHA-DIHYDROXY-9ALPHA,10ALPHA-EPOXY-7,8,9,10-TETRAHYDROBENZO[A]PYR ENE, 58917-67-2, Dose [Inhibitor]: 0, 2500 NMOL IN 200 µL ACETONE:DMSO (90:10) ONCE APPLIED 5 MIN PRIOR TO CARCINOGEN DOSE (STUDY DURATION: 21 WK), Route [Inhibitor]: DERMAL, Strain/Sex: CD-1/FEMALE, Target Tissue: Type of Lesion: SKIN: TUMOR, Dose [Carcinogen]: 200 NMOL IN ACETONE:DMSO (90:10) ONCE, Promoter: 12-O-TETRADECANOYLPHORBOL-13-ACETATE, 16561-29-8): 59%, 69%, -17%, not significant
tumour outcome (control, treated, inhibition, significance) (Carcinogen: AZOXYMETHANE, 25843-45-2, Dose [Inhibitor]: 0, 0.1% IN DIET FOR DURATION OF STUDY (STUDY DURATION: 48 WK), Route [Inhibitor]: ORAL, Strain/Sex: CF-1/FEMALE, Target Tissue: Type of Lesion: COLON: TUMOR, Dose [Carcinogen]: 10 MG/KG BW 3 TIMES, Promoter: NONE USED): 8/32 (25%), 5/32 (16%), 36%, not significant
tumour outcome (control, treated, inhibition, significance) (Carcinogen: AZOXYMETHANE, 25843-45-2, Dose [Inhibitor]: 0, 0.5% IN DIET FOR DURATION OF STUDY (STUDY DURATION: 48 WK), Route [Inhibitor]: ORAL, Strain/Sex: CF-1/FEMALE, Target Tissue: Type of Lesion: COLON: TUMOR, Dose [Carcinogen]: 10 MG/KG BW 3 TIMES, Promoter: NONE USED): 8/32 (25%), 7/35 (20%), 20%, not significant
tumour outcome (control, treated, inhibition, significance) (Carcinogen: AZOXYMETHANE, 25843-45-2, Dose [Inhibitor]: 0, 2% IN DIET FOR DURATION OF STUDY (STUDY DURATION: 48 WK), Route [Inhibitor]: ORAL, Strain/Sex: CF-1/FEMALE, Target Tissue: Type of Lesion: COLON: TUMOR, Dose [Carcinogen]: 10 MG/KG BW 3 TIMES, Promoter: NONE USED): 8/32 (25%), 2/34 (6%), 76%, p=0.003
tumour outcome (control, treated, inhibition, significance) (Carcinogen: BENZO[A]PYRENE, 50-32-8, Dose [Inhibitor]: 0, 1400 NMOL (TOTAL DOSE) APPLIED 10 MIN PRIOR TO CARCINOGEN DOSE INJECTED AS 1/7, 2/7, AND 4/7 OF THE TOTAL ON DAYS 1,, Route [Inhibitor]: INTRAPERITONEAL, Strain/Sex: ICR/MALE,FEMALE, Target Tissue: Type of Lesion: LUNG: TUMOR, Dose [Carcinogen]: 450 NMOL (TOTAL DOSE) INJECTED IN DOSES OF 1/7, 2/7, AND 4/7 ON DAYS 1, 8, AND 15 OF LIFE, RESPECTIVELY, Promoter: NONE USED): 73%, 68%, 7%, not significant
tumour outcome (control, treated, inhibition, significance) (Carcinogen: BENZO[A]PYRENE, 50-32-8, Dose [Inhibitor]: 0, 2500 NMOL IN 200 µL ACETONE:DMSO (90:10) ONCE APPLIED 5 MIN PRIOR TO CARCINOGEN DOSE (STUDY DURATION: 21 WK), Route [Inhibitor]: DERMAL, Strain/Sex: CD-1/FEMALE, Target Tissue: Type of Lesion: SKIN: TUMOR, Dose [Carcinogen]: 50 NMOL IN ACETONE:DMSO (90:10) ONCE, Promoter: 12-O-TETRADECANOYLPHORBOL-13-ACETATE, 16561-29-8): 50%, 45%, 10%, not significant
tumour outcome (control, treated, inhibition, significance) (Carcinogen: BENZO[A]PYRENE, 50-32-8, Dose [Inhibitor]: 0, 12500 NMOL IN 200 µL ACETONE:DMSO (90:10) ONCE APPLIED 5 MIN PRIOR TO CARCINOGEN DOSE (STUDY DURATION: 21 WK), Route [Inhibitor]: DERMAL, Strain/Sex: CD-1/FEMALE, Target Tissue: Type of Lesion: SKIN: TUMOR, Dose [Carcinogen]: 50 NMOL IN ACETONE:DMSO (90:10) ONCE, Promoter: 12-O-TETRADECANOYLPHORBOL-13-ACETATE, 16561-29-8): 50%, 55%, -10%, not significant
tumour outcome (control, treated, inhibition, significance) (Carcinogen: BENZO[A]PYRENE, 50-32-8, Dose [Inhibitor]: 25 MG IN 0.1 ML DMSO 3/WK ADMINISTERED SIMULTANEOUSLY WITH CARCINOGEN FOR DURATION OF STUDY (STUDY DURATION: 368 D), Route [Inhibitor]: DERMAL, Strain/Sex: ICR/FEMALE, Target Tissue: Type of Lesion: SKIN: SQUAMOUS CARCINOMA, Dose [Carcinogen]: 5 UG IN 0.1 ML DMSO THAT ALSO CONTAINED AGENT 3/WK FOR DURATION OF STUDY, Promoter: NONE USED): 6/50 (12%), 0/50 (0%), 100%, not calculated
